Measured values from patent publication US9198894B2, “Uses of 15-benzylidene-14-deoxy-11,12-didehydroandrographolide derivatives in the preparation of antineoplastic drugs” (Zhengzhou University, priority 2010, dated 2015).
Where two headings read alike, the source gives them in different places. Marks after values point to notes of the source that are not given here. Values belong to the molecule of their own block, whether it stands above or below them.

What was measured:
Murine hepatoma H22 = assay: Anti-tumor and anti-angiogenesis effects on H22 tumor-bearing mice; type: in vivo, mouse; conditions: H22 mice, 1.35 mmol/kg ig once a day 7 d
Description: 1) Animals: Kunming mice of clean grade, half male and half female, body weight 20±2 g, were purchased from the experimental animal center of Henan Province, China. Qualified Certificate number: SCXK (Yu) 2005-0001.
2) Cells: Murine hepatoma H22 cells were presently obtained from Henan Academy of Medical and Pharmaceutical Sciences (Zhengzhou, China).
Cyclophosphamide (Cyc) was produced by Tianjin Jingshi Pharmaceutical Co., Ltd., China (approval number of medicine: H12021006). Gelatin and carmine red were supplied by Sigma Chemical (St. Louis, Mo., U.S.A). All other chemicals and reagents were of the highest commercial grade available. All drugs were prepared with normal saline emulsified with Tween-80 (0.1% v/v) and dispersed in carboxymethylcellulose (0.5% v/v). 10% (W/V) carmine solution was prepared with salt solution containing 5% (W/V) gelatin which should be used immediately after preparation. The rest of medicines and reagents and the methods for preparation were the same with that of EXAMPLE 1.
4) Method: The H22 cells after in vivo passage for 7 d were diluted with physiological saline to adjust to a concentration of 1×10^7/mL, injected to the armpit of right forelimb of mice subcutaneously (0.2 ml/mouse), then mice were divided into 10 groups (n=12; 6 male and 6 female per group) randomly. 24 h later each group of mice was administrated intragastrically (ig; 0.2 ml/10 g) once a day continuously for 7 d with vehicle (tumor control group and control group), Cyc (standard control), or compounds at the tested doses. After the last drug administration and a following fasting of 8 h, each mouse was anesthetized with 1% pentobarbital in normal saline solution (80 mg/kg; ip). Mice of control group were injected with 5% gelatin in normal saline solution (40) via the tail vein (1 ml/mouse); whereas mice of other groups were injected replaced by 10% carmine red and 5% gelatin in normal saline solution (40). Mice were killed, then freezed in a refrigerator at −20 for 2 h to solidify. Tumors were segregated, weighed and homogenized with 3 M NaOH solution (10 ml/g tumor). The homogenate supernatant was prepared by being centrifuged for 20 min at 14000 rpm, and the absorbance at 490 nm was assayed using a PowerWaveX Microplate Scanning Spectrophotometer (Bio-tek Instruments, Inc). The carmine red content was calculated based on the standard curve. The vascular index (VI) expressed as milligram of carmine red per gram of tumor tissue. The inhibition ratio (IR) of tumor growth was calculated using the formula: IR (%)=[(Wc−Wt)/Wc]×100%, where Wc is the average tumor weight of the control group, and Wt is that of the drug treatment group. Data were expressed as mean±SD and statistical analysis was performed by SPSS Statistics 17.0 using a one-way analysis of variance (ANOVA) followed by unpaired t-test. A value of P<0.05 was considered statistically significant.

[1] = system: 5637 human urinary bladder cancer cells; assay: Wound healing (two-dimensional migration) assay, 5637; type: cell-based; conditions: 5637, 10.00 μmol/l, 24 h (FIG. 1C)
Protocol: (§1) 1) Cell lines: Cell lines of 5637 human bladder carcinoma, Eca-109 human esophageal carcinoma, HT29 human colon cancer, SGC-7901 human gastric cancer, A549 human lung adenocarcinoma and PC-3 human prostate carcinoma were purchased from the Type Culture Collection of the Chinese Academy of Sciences, Shanghai, China.
(§2) 3) Methods: The cells were trypsinized to generate a single-cell suspension and seeded in 96-well plates (200 μl/well), and incubated with medium containing 10% fetal bovine serum at 37 in a humidified atmosphere with 5% CO2. Following a 24 h incubation, the cells were starved for an additional 12 h in low-serum media (1% FBS). The cultures of Eca-109, HT29, 5637, SGC-7901, A549 and PC-3 were then scratched away with a 200-μl plastic pipette tip and rinsed twice with PBS to remove wound-derived loose and dislodged cells. The cells were cultured in replaced medium without or with compounds at final concentrations of 0, 2.50, 5.00 and 10.00 μmol/L, respectively. At least seven randomly selected views along the scraped line in each well were photographed immediately and 24 h and 36 h after incubation using a digital camera at 50× magnification. The average scraped area in each well under each treatment condition was measured, and the percentage of inhibition against cell migration was calculated. % of inhibition=1−(A0−At)/(A′0−A′t)×100%, where, A0 and At are the areas of wound with compound treatment measured immediately and 24 or 36 h post-injury, respectively; A′0 and A′t are the areas of wound without compound treatment measured immediately and 24 or 36 h post-injury, respectively.

[2] = system: A549 human lung adenocarcinoma; assay: Colony formation assay, A549; type: cell-based; conditions: for IC50: read-out: Inhibition against tumor cell colony formation IC50
Protocol: (§3) 1) Cell lines: Cell lines of SGC-7901 human gastric cancer, A549 human lung adenocarcinoma and Hela human cervical carcinoma were purchased from the Type Culture Collection of the Chinese Academy of Sciences, Shanghai, China.
(§4) 3) Method: Colony formation assay was used. The cells were trypsinized to generate a single-cell suspension and seeded in a 6-well plate at a density of 100 cells/well, then drug-containing medium was added to the well to make the final concentration of compound to 0, 1.25, 2.50, 5.00, 7.50, 10.00 μmol/L, respectively. The experiments were performed in duplicate, and the cells were cultured at 37 in a humidified atmosphere with 5% CO2. Terminate cell culture when the clones can be seen in the culture plate, then remove the culture medium, and wash twice with PBS, fix the cells with methanol (5 ml/well) for 15 min and stain the cells with hematoxylin-eosin stain. The number of clones which comprised more than 50 cells was counted under a TS100-F-PH microscope (Nikon Company, Japan). Calculate relative colony formation ratio (%) and the IC50 values. Relative colony formation ratio (%)=(colony number of drug-administration well/colony number of control well)×100%.

[3] = system: A549 human lung carcinoma cells; assay: Wound healing (two-dimensional migration) assay, A549; type: cell-based; conditions: A549, 10.00 μmol/l, 36 h (FIG. 1E)
Protocol: as §1, §2

S180 murine sarcoma = assay: Growth, invasion and metastasis of S180 sarcoma in tumor-bearing mice; type: in vivo, mouse
Protocol: 1) Animals: Be the same with that of EXAMPLE 4.
2) Cells: The S180 murine sarcoma cells were obtained from Henan Academy of Medical and Pharmaceutical Sciences (Zhengzhou, China).
4) Method: Mice were randomly divided into 10 groups (n=12). The S180 cells after in vivo passage for 7 d were diluted with physiological saline to adjust to a concentration of 1×10^7/mL. The inoculation of tumor cells was conducted in two batches, those of tumor control group I and groups treated with compounds 1 or 3 were in batch 1, those of tumor control group II, Cyc group and the compound 2 groups were in batch 2. The mice were injected with S180 cells (0.2 ml/mouse) into the armpit of right forelimb subcutaneously, and 24 h later each group of mice was administrated intragastrically (ig; 0.2 ml/10 g) once a day continuously for 9 d with vehicle (tumor control group), Cyc (standard control), or compounds at the tested doses. On day 10, kill the mice, observe and record the degree of invasion and metastasis of tumor tissues, then the tumor tissues were segregated and weighed. The inhibition ratio (IR) of tumor growth was calculated by the following formula: IR (%)=[(Wc−Wt)/Wc]×100%, where Wc is the average tumor weight of the control group, and Wt is that of the treatment group. Data were expressed as mean±SD and statistical analysis was performed by SPSS Statistics 17.0 using a one-way analysis of variance (ANOVA) followed by unpaired t-test. A value of P<0.05 was considered statistically significant.

[4] = system: Hela human cervical carcinoma; assay: Colony formation assay, Hela; type: cell-based; conditions: for IC50: read-out: Inhibition against tumor cell colony formation IC50
Protocol: as §3, §4

[5] = system: SGC-7901 human gastric cancer; assay: Colony formation assay, SGC-7901; type: cell-based; conditions: for IC50: read-out: Inhibition against tumor cell colony formation IC50
Protocol: as §3, §4

[6] = system: Eca-109 human esophageal carcinoma cells; assay: Wound healing (two-dimensional migration) assay, Eca-109; type: cell-based; conditions: Eca-109, 10.00 μmol/l, 24 h (FIG. 1A)
Protocol: as §1, §2

IC50 ([2]; Homo sapiens): 11300 nM | IC50 ([4]; Homo sapiens, HeLa): 2910 nM | IC50 ([5]; Homo sapiens): 19000 nM
Structure (SMILES): C=C1CC[C@@H]2[C@](C)(CO)[C@H](O)CC[C@@]2(C)[C@@H]1C/C=C1/C(=O)OC[C@H]1O [Compound 1, Andrographolide]
IR (%) of tumor growth (Murine hepatoma H22): 31.70* % | Carmine contents (Murine hepatoma H22; mean ± s): 4.66 ± 2.58 | VI (vascular index, mg carmine red per g tumor tissue) (Murine hepatoma H22; mean ± s): 5.10 ± 2.13 mg/g | Inhibitory effect on two-dimensional migration [1]: stronger inhibition | Inhibitory effect on two-dimensional migration [3]: stronger inhibition | IR (%) of S180 sarcoma growth (S180 murine sarcoma; 1.35 mmol/kg ig once a day 9 d): 17.18 ± 3.21 % | Average invasion and metastasis grade (S180 murine sarcoma; S180, grades 0-4, 1.35 mmol/kg): 0.67 | Mouse Number Grade 0 (S180 murine sarcoma; S180 invasion, Grade 0: no invasion, 1.35 mmol/kg): 6 | Mouse Number Grade 1 (S180 murine sarcoma; S180 invasion, Grade 1: invasion to right forelimb, 1.35 mmol/kg): 4 | Mouse Number Grade 2 (S180 murine sarcoma; S180 invasion, Grade 2: right forelimb and the left side of body, 1.35 mmol/kg): 2 | Mouse Number Grade 3 (S180 murine sarcoma; S180 invasion, Grade 3: also the ribs and muscles in chest, 1.35 mmol/kg): 0 | Mouse Number Grade 4 (S180 murine sarcoma; S180 invasion, Grade 4: invasion into chest or abdominal cavity, 1.35 mmol/kg): 0

Structure (SMILES): C=C1CCC2C(C)(CO)C(O)CCC2(C)C1C=CC1=CC(=Cc2ccc(F)cc2)OC1=O (stereo not drawn) [Compound 5]
Inhibitory effect on two-dimensional migration [6]: much stronger than that of other tumor cells | Inhibition of colony formation compared with andrographolide [2]: remarkably stronger than that of andrographolide | IC50 [2]: 2270 nM | Inhibitory effect on two-dimensional migration [3]: much stronger than that of other tumor cells | Inhibition of colony formation compared with andrographolide ([4]; Hela): remarkably stronger than that of andrographolide | IC50 ([4]; Hela): 1470 nM | Inhibition of colony formation compared with andrographolide [5]: remarkably stronger than that of andrographolide | IC50 [5]: 2070 nM

Structure (SMILES): C=C1CCC2C(C)(CO)C(O)CCC2(C)C1C=CC1=CC(=Cc2ccc(Br)cc2)OC1=O (stereo not drawn) [Compound 6]
Inhibition of colony formation compared with andrographolide [2]: remarkably stronger than that of andrographolide | IC50 [2]: 1670 nM | Inhibition of colony formation compared with andrographolide ([4]; Hela): remarkably stronger than that of andrographolide | IC50 ([4]; Hela): 1980 nM | Inhibition of colony formation compared with andrographolide [5]: remarkably stronger than that of andrographolide | IC50 [5]: 2630 nM

Structure (SMILES): C=C1CCC2C(C)(CO)C(O)CCC2(C)C1C=CC1=CC(=Cc2ccc(OC)cc2)OC1=O (stereo not drawn) [Compound 7]
Inhibitory effect on two-dimensional migration [1]: stronger inhibition | Inhibition of colony formation compared with andrographolide [2]: remarkably stronger than that of andrographolide | IC50 [2]: 3310 nM | Inhibitory effect on two-dimensional migration [3]: stronger inhibition | Inhibition of colony formation compared with andrographolide ([4]; Hela): remarkably stronger than that of andrographolide | IC50 ([4]; Hela): 2400 nM | Inhibition of colony formation compared with andrographolide [5]: remarkably stronger than that of andrographolide | IC50 [5]: 2450 nM

Structure (SMILES): C=C1CCC2C(C)(COC(=O)CCC(=O)O)C(OC(=O)CCC(=O)O)CCC2(C)C1C=CC1=CC(=Cc2ccc(Cl)cc2)OC1=O (stereo not drawn) [Compound 8]
Inhibitory effect on two-dimensional migration [6]: much stronger than that of other tumor cells | Inhibitory effect on two-dimensional migration [3]: much stronger than that of other tumor cells
